Data published in the supplement of paper PMC11451515.

Legend:
Conditions in all cases: 48 h
NOMO1 [1] = assay: cell viability relative to DMSO control; higher = less cytotoxic
In short: (§1)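 NOMO1 or SEM (500 cells/well) or P12-Ichikawa (1000 cells/well) leukemia cells were adapted for at least four passages in each medium. They were seeded in 1536-well plates (5 μl) and pin-dosed with library compounds in DMSO over an 11-point threefold series, 47 μM to 0.79 nM. CellTiter-Glo One luminescence was read after 48 h at 37°C. Viability is the per-plate percentage relative to DMSO wells, with cell-free wells as background.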

P12-Ichikawa [2] = assay: as above
In short: as §1

SEM cells [3] = assay: as above
In short: as §1

NOMO1 [4] = assay: AUC of viability dose-response curve (% viability x log10 dose units); higher = less sensitive
In short: (§2)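 Seeding of medium-adapted leukemia cells was at 500 or 1000 cells/well in 1536-well plates, followed by 48 h at 37°C with library compounds in DMSO at 11 threefold doses from 47 μM to 0.79 nM. CellTiter-Glo One luminescence was normalised per plate to DMSO and cell-free wells and fitted as a four-parameter log-logistic function of log10 dose. Area under the curve was integrated by trapezoidal rule, with curves exceeding full viability scaled and curves failing quality control removed.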

P12-Ichikawa [5] = assay: as above
In short: as §2

SEM cells [6] = assay: as above
In short: as §2

Nc1ccccc1NC(=O)c1ccc(CNC(=O)OCc2cccnc2)cc1
cell viability [%]
Conditions | NOMO1 [1] | P12-Ichikawa [2] | SEM cells [3]
HPLM + 10% dialyzed FBS, 0.000781 µM | 103 | 111 | 109
HPLM + 10% dialyzed FBS, 0.00234 µM | 127 | 118 | 120
HPLM + 10% dialyzed FBS, 0.00702 µM | 111 | 110 | 120
HPLM + 10% dialyzed FBS, 0.0211 µM | 108 | 113 | 111
HPLM + 10% dialyzed FBS, 0.0632 µM | 118 | 105 | 118
HPLM + 10% dialyzed FBS, 0.19 µM | 110 | 107 | 119
HPLM + 10% dialyzed FBS, 0.569 µM | 81.1 | 98.4 | 87.2
HPLM + 10% dialyzed FBS, 1.71 µM | 47 | 73.4 | 21.2
HPLM + 10% dialyzed FBS, 5.12 µM | 22.9 | 20 | 8.14
HPLM + 10% dialyzed FBS, 15.4 µM | 12.7 | 5.58 | 7.22
HPLM + 10% dialyzed FBS, 46.1 µM | 3.22 | 4.41 | 5.16
RPMI 5 mM glucose + 10% FBS, 0.000781 µM | 103 | 106 | 109
RPMI 5 mM glucose + 10% FBS, 0.00234 µM | 92.5 | 112 | 117
RPMI 5 mM glucose + 10% FBS, 0.00702 µM | 103 | 108 | 136
RPMI 5 mM glucose + 10% FBS, 0.0211 µM | 99 | 122 | 125
RPMI 5 mM glucose + 10% FBS, 0.0632 µM | 108 | 108 | 132
RPMI 5 mM glucose + 10% FBS, 0.19 µM | 103 | 102 | 120
RPMI 5 mM glucose + 10% FBS, 0.569 µM | 88.7 | 113 | 89.3
RPMI 5 mM glucose + 10% FBS, 1.71 µM | 58.6 | 71.6 | 12.2
RPMI 5 mM glucose + 10% FBS, 5.12 µM | 33.9 | 27.8 | 7.97
RPMI 5 mM glucose + 10% FBS, 15.4 µM | 10.7 | 4.9 | 6.97
RPMI 5 mM glucose + 10% FBS, 46.1 µM | 3.59 | 3.42 | 4.6
RPMI 5 mM glucose + 10% dialyzed FBS, 0.000781 µM | 115 | 109 | 94.3
RPMI 5 mM glucose + 10% dialyzed FBS, 0.00234 µM | 107 | 111 | 105
RPMI 5 mM glucose + 10% dialyzed FBS, 0.00702 µM | 110 | 108 | 99.8
RPMI 5 mM glucose + 10% dialyzed FBS, 0.0211 µM | 115 | 113 | 114
RPMI 5 mM glucose + 10% dialyzed FBS, 0.0632 µM | 123 | 114 | 124
RPMI 5 mM glucose + 10% dialyzed FBS, 0.19 µM | 97.3 | 113 | 104
RPMI 5 mM glucose + 10% dialyzed FBS, 0.569 µM | 94.2 | 99.6 | 76.3
RPMI 5 mM glucose + 10% dialyzed FBS, 1.71 µM | 53.9 | 69.1 | 13
RPMI 5 mM glucose + 10% dialyzed FBS, 5.12 µM | 24.7 | 21.4 | 8.44
RPMI 5 mM glucose + 10% dialyzed FBS, 15.4 µM | 9.54 | 5.4 | 7.8
RPMI 5 mM glucose + 10% dialyzed FBS, 46.1 µM | 2.99 | 3.96 | 5.76

AUC of viability dose-response curve
Conditions | NOMO1 [4] | P12-Ichikawa [5] | SEM cells [6]
HPLM + 10% dialyzed FBS | 326 | 350 | 313
RPMI 5 mM glucose + 10% FBS | 351 | 354 | 308
RPMI 5 mM glucose + 10% dialyzed FBS | 334 | 347 | 310

OC[C@H]1O[C@@H](O[C@@H]2[C@@H](CO)O[C@](O)(CO)[C@H]2O)[C@H](O)[C@@H](O)[C@H]1O
cell viability [%]
Conditions | NOMO1 [1] | P12-Ichikawa [2] | SEM cells [3]
HPLM + 10% dialyzed FBS, 0.000781 µM | 108 | 98.3 | 103
HPLM + 10% dialyzed FBS, 0.00234 µM | 110 | 104 | 96.4
HPLM + 10% dialyzed FBS, 0.00702 µM | 110 | 95.2 | 105
HPLM + 10% dialyzed FBS, 0.0211 µM | 113 | 105 | 110
HPLM + 10% dialyzed FBS, 0.0632 µM | 99.5 | 110 | 113
HPLM + 10% dialyzed FBS, 0.19 µM | 92.2 | 97 | 100
HPLM + 10% dialyzed FBS, 0.569 µM | 103 | 101 | 109
HPLM + 10% dialyzed FBS, 1.71 µM | 95.1 | 97.8 | 108
HPLM + 10% dialyzed FBS, 5.12 µM | 102 | 88.8 | 105
HPLM + 10% dialyzed FBS, 15.4 µM | 47.7 | 71.1 | 63.5
HPLM + 10% dialyzed FBS, 46.1 µM | 78.1 | 93.4 | 93.7
RPMI 5 mM glucose + 10% FBS, 0.000781 µM | 91.1 | 93.4 | 102
RPMI 5 mM glucose + 10% FBS, 0.00234 µM | 95.4 | 97.2 | 85
RPMI 5 mM glucose + 10% FBS, 0.00702 µM | 111 | 97 | 108
RPMI 5 mM glucose + 10% FBS, 0.0211 µM | 109 | 98.2 | 112
RPMI 5 mM glucose + 10% FBS, 0.0632 µM | 105 | 100 | 94.1
RPMI 5 mM glucose + 10% FBS, 0.19 µM | 100 | 96.4 | 97.2
RPMI 5 mM glucose + 10% FBS, 0.569 µM | 105 | 99 | 102
RPMI 5 mM glucose + 10% FBS, 1.71 µM | 97.3 | 89.8 | 96.2
RPMI 5 mM glucose + 10% FBS, 5.12 µM | 88.1 | 94.5 | 93.3
RPMI 5 mM glucose + 10% FBS, 15.4 µM | 71.9 | 65.2 | 68.9
RPMI 5 mM glucose + 10% FBS, 46.1 µM | 86.2 | 93.6 | 95.8
RPMI 5 mM glucose + 10% dialyzed FBS, 0.000781 µM | 91.4 | 90.9 | 95.6
RPMI 5 mM glucose + 10% dialyzed FBS, 0.00234 µM | 86.6 | 93 | 82.5
RPMI 5 mM glucose + 10% dialyzed FBS, 0.00702 µM | 103 | 92.8 | 102
RPMI 5 mM glucose + 10% dialyzed FBS, 0.0211 µM | 97.5 | 99.5 | 116
RPMI 5 mM glucose + 10% dialyzed FBS, 0.0632 µM | 95.7 | 100 | 101
RPMI 5 mM glucose + 10% dialyzed FBS, 0.19 µM | 101 | 98.5 | 105
RPMI 5 mM glucose + 10% dialyzed FBS, 0.569 µM | 100 | 105 | 94.6
RPMI 5 mM glucose + 10% dialyzed FBS, 1.71 µM | 98.7 | 91.5 | 106
RPMI 5 mM glucose + 10% dialyzed FBS, 5.12 µM | 92.5 | 86 | 82.8
RPMI 5 mM glucose + 10% dialyzed FBS, 15.4 µM | 68.1 | 62.2 | 72.2
RPMI 5 mM glucose + 10% dialyzed FBS, 46.1 µM | 80.6 | 77.9 | 96.4

AUC of viability dose-response curve
Conditions | NOMO1 [4] | P12-Ichikawa [5] | SEM cells [6]
HPLM + 10% dialyzed FBS | 448 | 456 | 458
RPMI 5 mM glucose + 10% FBS | 453 | 447 | 460
RPMI 5 mM glucose + 10% dialyzed FBS | 444 | 436 | 457

COc1cc2c(cc1OC)C1CC(=O)C(CC(C)C)CN1CC2 (configuration not stated)
cell viability [%]
Conditions | NOMO1 [1] | P12-Ichikawa [2] | SEM cells [3]
HPLM + 10% dialyzed FBS, 0.000781 µM | – | 122 | 84.5
HPLM + 10% dialyzed FBS, 0.00234 µM | – | 122 | 116
HPLM + 10% dialyzed FBS, 0.00702 µM | – | 116 | 99.6
HPLM + 10% dialyzed FBS, 0.0211 µM | – | 118 | 107
HPLM + 10% dialyzed FBS, 0.0632 µM | – | 113 | 98.4
HPLM + 10% dialyzed FBS, 0.19 µM | – | 127 | 100
HPLM + 10% dialyzed FBS, 0.569 µM | – | 117 | 118
HPLM + 10% dialyzed FBS, 1.71 µM | – | 122 | 110
HPLM + 10% dialyzed FBS, 5.12 µM | – | 116 | 112
HPLM + 10% dialyzed FBS, 15.4 µM | – | 114 | 103
HPLM + 10% dialyzed FBS, 46.1 µM | – | 106 | 96.5
RPMI 5 mM glucose + 10% FBS, 0.000781 µM | 116 | – | 116
RPMI 5 mM glucose + 10% FBS, 0.00234 µM | 106 | – | 114
RPMI 5 mM glucose + 10% FBS, 0.00702 µM | 106 | – | 110
RPMI 5 mM glucose + 10% FBS, 0.0211 µM | 104 | – | 118
RPMI 5 mM glucose + 10% FBS, 0.0632 µM | 134 | – | 103
RPMI 5 mM glucose + 10% FBS, 0.19 µM | 117 | – | 110
RPMI 5 mM glucose + 10% FBS, 0.569 µM | 116 | – | 114
RPMI 5 mM glucose + 10% FBS, 1.71 µM | 104 | – | 118
RPMI 5 mM glucose + 10% FBS, 5.12 µM | 113 | – | 118
RPMI 5 mM glucose + 10% FBS, 15.4 µM | 113 | – | 116
RPMI 5 mM glucose + 10% FBS, 46.1 µM | 103 | – | 109
RPMI 5 mM glucose + 10% dialyzed FBS, 0.000781 µM | 117 | 117 | 120
RPMI 5 mM glucose + 10% dialyzed FBS, 0.00234 µM | 133 | 119 | 140
RPMI 5 mM glucose + 10% dialyzed FBS, 0.00702 µM | 109 | 121 | 113
RPMI 5 mM glucose + 10% dialyzed FBS, 0.0211 µM | 115 | 124 | 117
RPMI 5 mM glucose + 10% dialyzed FBS, 0.0632 µM | 148 | 122 | 97.1
RPMI 5 mM glucose + 10% dialyzed FBS, 0.19 µM | 124 | 125 | 129
RPMI 5 mM glucose + 10% dialyzed FBS, 0.569 µM | 128 | 118 | 111
RPMI 5 mM glucose + 10% dialyzed FBS, 1.71 µM | 121 | 125 | 129
RPMI 5 mM glucose + 10% dialyzed FBS, 5.12 µM | 115 | 109 | 124
RPMI 5 mM glucose + 10% dialyzed FBS, 15.4 µM | 110 | 115 | 119
RPMI 5 mM glucose + 10% dialyzed FBS, 46.1 µM | 125 | 102 | 103

AUC of viability dose-response curve
Conditions | NOMO1 [4] | P12-Ichikawa [5] | SEM cells [6]
HPLM + 10% dialyzed FBS | 448 | 459 | 471
RPMI 5 mM glucose + 10% FBS | 470 | 459 | 476
RPMI 5 mM glucose + 10% dialyzed FBS | 469 | 466 | 459
